Key:
Uromyces viciae-fabae = Uromyces viciae-fabae / field bean / leaf disc preventative (faba-bean rust); format: in vivo; details: foliar, 288 h, 100 ppm in the applied formulation, field bean leaf discs, inoculated two hours after application, vs untreated, 12 days after application, read-out: disease control
Procedure: (§1) Leaf disks or leaf segments of various plant species are cut from plants grown in a greenhouse. The cut leaf disks or segments are placed in multiwell plates (24-well format) onto water agar. The leaf disks are sprayed with a test solution before (preventative) or after (curative) inoculation. Compounds to be tested are prepared as DMSO solutions (max. 10 mg/ml) which are diluted to the appropriate concentration with 0.025% Tween20 just before spraying. The inoculated leaf disks or segments are incubated under defined conditions (temperature, relative humidity, light, etc.) according to the respective test system. A single evaluation of disease level is carried out 3 to 14 days after inoculation, depending on the pathosystem. Percent disease control relative to the untreated check leaf disks or segments is then calculated.
Example 5: Fungicidal Activity Against Uromyces viciae-fabael Field Bean/Leaf Disc Preventative (Faba-Bean Rust)
Field bean leaf discs are placed on water agar in multiwell plates (96-well format) and 10 μl of the Formulated test compound diluted in acetone and a spreader pipetted onto the leaf disc. Two hours after application leaf discs are inoculated by spraying a spore suspension on the lower leaf surface. The leaf discs are incubated in a climate cabinet at 22° C. with 18 hour day and 70% relative humidity. The activity of a compound is assessed as percent disease control compared to untreated when an appropriate level of disease damage appears in untreated check leaf disks (12 days after application).
The following compounds at 100 ppm in the applied Formulation give at least 80% disease control in this test when compared to untreated control leaf discs under the same conditions, which show extensive disease development.

[1] = system: Puccinia recondita f. Sp. Tritici; assay: Puccinia recondita f. sp. tritici / wheat / leaf disc curative (brown rust); format: in vivo; details: foliar, 200 ppm in the applied formulation, wheat leaf segments cv. Kanzler, compound applied 1 day after inoculation, vs untreated, 6 to 8 days after application, read-out: disease control
Procedure: as §1
Example 2: Fungicidal Activity Against Puccinia recondita f. sp. tritici/Wheat/Leaf Disc Curative (Brown Rust)
Wheat leaf segments cv. Kanzler are placed on agar in multiwell plates (24-well format). The leaf segments are then inoculated with a spore suspension of the fungus. Plates were stored in darkness at 19° C. and 75% relative humidity. The Formulated test compound diluted in water was applied 1 day after inoculation. The leaf segments were incubated at 19° C. and 75% relative humidity under a light regime of 12 hours light/12 hours darkness in a climate cabinet and the activity of a compound was assessed as percent disease control compared to untreated when an appropriate level of disease damage appears in untreated check leaf segments (6 to 8 days after application).
The following compounds at 200 ppm in the applied Formulation give at least 80% disease control in this test when compared to untreated control leaf disks under the same conditions, which show extensive disease development.

[2] = system: Glomerella lacenarium (Colletotrichum lacenarium); assay: Glomerella lacenarium (Colletotrichum lacenarium) liquid culture / cucumber / preventative (anthracnose); format: cell-based; details: 20 ppm, liquid culture in PDB, 24° C., inhibition of growth measured photometrically 3 to 4 days after application, vs untreated, read-out: disease control
Method in brief: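 Cryopreserved conidia in potato dextrose broth were added to test compound in a 96-well microtiter plate and incubated at 24 °C. Growth inhibition read photometrically 3–4 days after application, as percent activity versus untreated check.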

Phakopsora pachyrhizi = Phakopsora pachyrhizi / soybean / leaf disc preventative (Asian soybean rust); format: in vivo; details: foliar, 200 ppm in the applied formulation, soybean leaf disks, inoculated one day after application, vs untreated, 12 to 14 days after application, read-out: disease control
Method in brief: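 Soybean leaf discs on water agar sprayed with formulated compound diluted in water, then inoculated one day later with spore suspension on the lower surface. Held 24-36 h dark at 20 °C, 75% rh, then 12 h light/day; percent disease control versus untreated scored 12-14 days after application.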

[3] = system: Puccinia recondita f. Sp. Tritici; assay: Puccinia recondita f. sp. tritici / wheat / leaf disc preventative (brown rust); format: in vivo; details: foliar, 200 ppm in the applied formulation, wheat leaf segments cv. Kanzler, inoculated 1 day after application, vs untreated, 7 to 9 days after application, read-out: disease control
Method in brief: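 Preventative leaf-segment test on wheat cv. Kanzler: formulated compound diluted in water was sprayed onto segments on agar, with spore inoculation 1 day later. Incubated at 19° C, 75% rh, 12 h light/12 h dark; percent disease control versus untreated scored 7 to 9 days after application.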

SMILES | pest or weed control at 100 ppm (Uromyces viciae-fabae) | further results
O=C(Nc1ccc(-c2noc(C(F)(F)F)n2)cc1)c1ccccc1 [Compound 1.3, N-[4-[5-(trifluoromethyl)-1,2,4-oxadiazol-3-yl]phenyl]benzamide] | ≥ 80% | –
O=C(Nc1ccc(-c2noc(C(F)(F)F)n2)cc1)c1nccc2nnsc12 [Compound 1.28, N-[4-[5-(trifluoromethyl)-1,2,4-oxadiazol-3-yl]phenyl]thiadiazolo [5,4-c]pyridine-4-carboxamide] | ≥ 80% | –
CC(=O)N(c1ccc(-c2noc(C(F)(F)F)n2)cc1)C(C)C(=O)NC(C)(C)C (stereo not drawn) [Compound 1.59, 2-[N-acetyl-4-[5-(trifiuoromethyl)-1,2,4-oxadiazol-3-yl]anilino]-N-tert-butyl-propanamide] | ≥ 80% | –
Cn1nc(C(=O)Nc2ccc(-c3noc(C(F)(F)F)n3)cc2)c(Cl)c1OC(F)F [Compound 1.25, 4-chloro-5-(difluoromethoxy)-1-methyl-N-[4-[5-(trifluoromethyl)-1,2,4-oxadiazol-3-yl]phenyl]pyrazole-3-carboxamide] | ≥ 80% | –
Cn1nc(C(C)(C)C)cc1C(=O)Nc1cccc(C(=O)Nc2ccc(-c3noc(C(F)(F)F)n3)cc2)c1 [Compound 1.33, 5-tert-butyl-2-methyl-N-[3-[[4-[5-(trifluoromethyl)-1,2,4-oxadiazol-3-yl]phenyl]carbamoyl]phenyl]pyrazole-3-carboxamide] | ≥ 80% | –
O=C(Nc1ccc(-c2noc(C(F)(F)F)n2)cc1)c1cn(C2CC2)c2cc(Cl)c(F)cc2c1=O [Compound 1.8, 7-chloro-1-cyclopropyl-6-fluoro-4-oxo-N-[4-[5-(trifluoromethyl)-1,2,4-oxadiazol-3-yl]phenyl]quinoline-3-carboxamide] | ≥ 80% | –
O=C(Nc1ccc(-c2noc(C(F)(F)F)n2)cc1)c1cc(F)cc2nnsc12 [Compound 1.34, 5-fluoro-N-[4-[5-(trifluoromethyl)-1,2,4-oxadiazol-3-yl]phenyl]-1,2,3-benzothiadiazole-7-carboxamide] | ≥ 80% | –
O=C(NC(C(=O)Nc1ccc(-c2noc(C(F)(F)F)n2)cc1)c1ccccc1)OCc1ccccc1 (stereo not drawn) [Compound 1.14, benzyl N-[2-oxo-1-phenyl-2-[4-[5-(trifluoromethyl)-1,2,4-oxadiazol-3-yl]anilino]ethyl] carbamate] | ≥ 80% | –
O=C(Nc1ccc(-c2noc(C(F)(F)F)n2)cc1)c1cccn2ccnc12 [Compound 1.7, N-[4-[5-(trifluoromethyl)-1,2,4-oxadiazol-3-yl]phenyl]imidazo[1,2-a]pyridine-8-carboxamide] | ≥ 80% | –
O=C(COc1ccc(Oc2cccc(F)c2)cc1)Nc1ccc(-c2noc(C(F)(F)F)n2)cc1 [Compound 1.35, 2-[4-(3-fluorophenoxy)phenoxy]-N-[4-[5-(trifluoromethyl)-1,2,4-oxadiazol-3-yl]phenyl]acetamide] | ≥ 80% | –
O=C(C=Cc1cccc2ccccc12)Nc1ccc(-c2noc(C(F)(F)F)n2)cc1 [Compound 1.17, 3-(1-naphthyl)-N-[4-[5-(trifluoromethyl)-1,2,4-oxadiazol-3-yl]phenyl]prop-2-enamide] | ≥ 80% | –
COc1cc(OC)nc(Oc2ncccc2C(=O)Nc2ccc(-c3noc(C(F)(F)F)n3)cc2)n1 [Compound 1.22, 2-(4,6-dimethoxypyrimidin-2-yl)oxy-N-[4-[5-(trifluoromethyl)-1,2,4-oxadiazol-3-yl]phenyl]pyridine-3-carboxamide] | ≥ 80% | –
CC(C)C(NC(=O)OC(C)(C)C)C1=NOC(C(=O)Nc2ccc(-c3noc(C(F)(F)F)n3)cc2)C1 (stereo not drawn) [Compound 1.30, tert-butyl N-[2-methyl-1-[5-[[4-[5-(trifluoromethyl)-1,2,4-oxadiazol-3-yl]phenyl]carbamoyl]-4,5-dihydroisoxazol-3-yl]propyl]carbamate] | ≥ 80% | –
O=C(Nc1ccc(-c2noc(C(F)(F)F)n2)cc1)C1CC=CC1 [Compound 2.7, N-[4-[5-(trifluoromethyl)-1,2,4-oxadiazol-3-yl]phenyl]cyclopent-3-ene-1-carboxamide] | – | pest or weed control at 200 ppm [1]: ≥ 80%; inhibition of growth at 20 ppm [2]: ≥ 80%; pest or weed control at 200 ppm (Phakopsora pachyrhizi): ≥ 80%; pest or weed control at 200 ppm [3]: ≥ 80%
CN(C(=O)C1CCCO1)c1ccc(-c2noc(C(F)(F)F)n2)cc1 (stereo not drawn) [Compound 1.141, N-methyl-N-[4-[5-(trifluoromethyl)-1,2,4-oxadiazol-3-yl]phenyl] tetrahydrofuran-2-carboxamide] | – | pest or weed control at 200 ppm [1]: ≥ 80%; inhibition of growth at 20 ppm [2]: ≥ 80%; pest or weed control at 200 ppm (Phakopsora pachyrhizi): ≥ 80%; pest or weed control at 200 ppm [3]: ≥ 80%
O=C(Nc1ccc(-c2noc(C(F)(F)F)n2)cc1)C1CC1F (stereo not drawn) [Compound 1.111, 2-fluoro-N-[4-[5-(trifluoromethyl)-1,2,4-oxadiazol-3-yl]phenyl]cyclo-propanecarboxamide] | – | pest or weed control at 200 ppm [1]: ≥ 80%; inhibition of growth at 20 ppm [2]: ≥ 80%; pest or weed control at 200 ppm (Phakopsora pachyrhizi): ≥ 80%; pest or weed control at 200 ppm [3]: ≥ 80%
CC(=O)N(c1ccc(-c2noc(C(F)(F)F)n2)cc1)C(C)(C)C(=O)NC(C)(C)C [Compound 1.61, 2-[N-acetyl-4-[5-(trifluoromethyl)-1,2,4-oxadiazol-3-yl]anilino]-N-tert-butyl-2-methyl-propanamide] | ≥ 80% | –
O=C(Nc1ccc(-c2noc(C(F)(F)F)n2)cc1)c1cccc2c1OCCO2 [Compound 1.9, N-[4-[5-(trifluoromethyl)-1,2,4-oxadiazol-3-yl]phenyl]-2,3-dihydro-1,4-benzodioxine-5-carboxamide] | ≥ 80% | –
O=C(Nc1ccc(-c2noc(C(F)(F)F)n2)cc1)C(F)(F)c1ccc(Br)cc1 [Compound 1.40, 2-(4-bromophenyl)-2,2-difluoro-N-[4-[5-(trifluoromethyl)-1,2,4-oxadiazol-3-yl]phenyl]acetamide] | ≥ 80% | –
O=C(Nc1ccc(-c2noc(C(F)(F)F)n2)cc1)c1cc(Br)nn1-c1ncccc1Cl [Compound 1.43, 5-bromo-2-(3-chloro-2-pyridyl)-N-[4-[5-(trifluoromethyl)-1,2,4-oxadiazol-3-yl]phenyl]pyrazole-3-carboxamide] | ≥ 80% | –
O=C(Nc1ccc(-c2noc(C(F)(F)F)n2)cc1)c1ccc(-n2ccnc2)cc1 [Compound 1.42, 4-imidazol-1-yl-N-[4-[5-(trifluoromethyl)-1,2,4-oxadiazol-3-yl]phenyl]benzamide] | ≥ 80% | –
COCCCC(=O)Nc1ccc(-c2noc(C(F)(F)F)n2)cc1 [Compound 2.16, 4-methoxy-N-[4-[5-(trifluoromethyl)-1,2,4-oxadiazol-3-yl]phenyl] butanamide] | – | pest or weed control at 200 ppm [1]: ≥ 80%; inhibition of growth at 20 ppm [2]: ≥ 80%; pest or weed control at 200 ppm (Phakopsora pachyrhizi): ≥ 80%; pest or weed control at 200 ppm [3]: ≥ 80%
O=C(Nc1ccc(-c2noc(C(F)(F)F)n2)cc1)c1cccc(OCc2ccccc2)c1 [Compound 1.38, 3-benzyloxy-N-[4-[5-(trifluoromethyl)-1,2,4-oxadiazol-3-yl]phenyl]benzamide] | ≥ 80% | –
Cc1sc(Nc2ccccc2)nc1C(=O)Nc1ccc(-c2noc(C(F)(F)F)n2)cc1 [Compound 1.37, 2-anilino-5-methyl-N-[4-[5-(trifluoromethyl)-1,2,4-oxadiazol-3-yl]phenyl]thiazole-4-carboxamide] | ≥ 80% | –

Reference: patent US20200022370A1, “MICROBIOCIDAL OXADIAZOLE DERIVATIVES” (SYNGENTA PARTICIPATIONS AG, priority 2016, published 2020)
